Data published in patent US20080125432A1 (Devgen NV, priority 2004, published 2008).
pIC50: −log10 of the molar value. Where two headings read alike, the source gives them in different places.

Target: T1, hERG potassium channel (Homo sapiens, UniProt Q12809)
T1 construct: host or cells: HEK 293 T-REx
Experiment: Whole cell patch clamp, HEK 293 T-REx HERG cells
Format: cell-based
Settings: for IC50: estimated by Hill fit with hill=1, ymax=100, tested at 10 μM, n=2, read-out: IC50 (μM) hERG; for pIC50: patch clamp, read-out: hERG IC50
Excerpt: For this experiment HEK 293 T-REx HERG cells (#23) were used. This cell line made by IonGate is characterized by the inducible expression of the hERG gene. The T-REx™ System (Invitrogen, Karlsruhe, Germany) is a tetracycline-regulated mammalian expression system that uses regulatory elements from the E. coli Tn10-encoded tetracycline (Tet) resistance operon. In the absence of Tet the expression is repressed. Tetracycline regulation in the T-REx™ System is based on the binding of tetracycline to the Tet repressor and derepression of the promoter controlling expression of the hERG gene. Addition of Tet to the cell culture media results in expression of the hERG potassium channel.
To construct the HEK 293 T-REx HERG cell line, the hERG gene was ligated into the inducible expression vector pcDNA4/TO (→pc4TO-HERG) and transfected into HEK 293 T-REx cells (this cell line stably expresses the Tet repressor and was purchased at Invitrogen). Stable cell clones were isolated after selection with Blasticidin (5 μg/ml) and Zeocin™ (300 μg/ml). The clones were electrophysiological characterized after induction with 1 μg/ml Tet.
Experiments were performed using the patch clamp set-up. Technical equipment needed for manipulation of the cells was placed on a vibration-isolated table and shielded with a Faraday cage to minimize electrical noise. The amplifier and control system were placed in a rack outside the Faraday cage. The system consisted of an EPC9 or EPC10 patch clamp amplifier (HEKA, Lambrecht, Germany), and the perfusion system DADVC8 (ALA Scientific, New York, USA) controlled by the Pulse software package (HEKA, Lambrecht, Germany) installed on a personal computer.
The cells used for this experiment were kept in continuous culture under standard conditions (37° C., air supplemented with 5% CO2). The HEK 293 T-REx HERG cells were kept in minimal essential medium (MEM) supplemented with 100 U/ml Penicillin, 100 μg/ml Streptomycin, 10% fetal calf serum (FCS), 1% non-essential amino acids (NEAA), 2.5 μg/ml amphotericin, 300 μg/ml Zeocin™ and 5 μg/ml Blasticidin. Cells were passed every 3-4 days after detachment using a Trypsin solution. The quality of the cultured cells was guaranteed by vitality and contamination tests. The culture of the cells was performed as described in protocol D described above.
At least 18 hours prior to electrophysiological experiments the cells were detached by application of iced PBS (phosphate buffered saline) or Trypsin and replated on cover slips. 1 μg/ml Tet was added to the cells to induce hERG expression.
Activity of the cardiac hERG channel was investigated using the patch clamp technique in its whole cell mode. This means that the current needed for clamping the whole cell expressing the K^+-channel protein to a specific potential was measured. The pipettes used for patch clamping were made of borosilicate glass. Measurements were performed at room temperature (20-25° C.). In each experiment (i.e. each cell) only one concentration of the compound was investigated no cumulative dosages were performed. Each cell acted as its own control. […]
After the whole cell configuration was established a series of pulses was applied to check for hERG expression and to optimize amplifier settings. However, only the following measurements were used for data analysis: 15 test pulses (FIG. 4a and Table 6a) were applied at 0.1 Hz (series 1) under constant superfusion with bath solution. The protocol was initiated by a leak test at −40 mV (50 ms). […] The maximum hERG tail current amplitude was measured at −40 mV (tail current test, 1.5 sec.). Only cells generating tail current amplitudes between 300 pA and 10 nA were used for the experimental procedure.
After successful characterization of the current another 10 test pulses were applied at 0.1 Hz while the cell was superfused with bath solution (series 2). […]

[1] = percent value, test concentration not given

T1 sequence (Q12809 whole entry): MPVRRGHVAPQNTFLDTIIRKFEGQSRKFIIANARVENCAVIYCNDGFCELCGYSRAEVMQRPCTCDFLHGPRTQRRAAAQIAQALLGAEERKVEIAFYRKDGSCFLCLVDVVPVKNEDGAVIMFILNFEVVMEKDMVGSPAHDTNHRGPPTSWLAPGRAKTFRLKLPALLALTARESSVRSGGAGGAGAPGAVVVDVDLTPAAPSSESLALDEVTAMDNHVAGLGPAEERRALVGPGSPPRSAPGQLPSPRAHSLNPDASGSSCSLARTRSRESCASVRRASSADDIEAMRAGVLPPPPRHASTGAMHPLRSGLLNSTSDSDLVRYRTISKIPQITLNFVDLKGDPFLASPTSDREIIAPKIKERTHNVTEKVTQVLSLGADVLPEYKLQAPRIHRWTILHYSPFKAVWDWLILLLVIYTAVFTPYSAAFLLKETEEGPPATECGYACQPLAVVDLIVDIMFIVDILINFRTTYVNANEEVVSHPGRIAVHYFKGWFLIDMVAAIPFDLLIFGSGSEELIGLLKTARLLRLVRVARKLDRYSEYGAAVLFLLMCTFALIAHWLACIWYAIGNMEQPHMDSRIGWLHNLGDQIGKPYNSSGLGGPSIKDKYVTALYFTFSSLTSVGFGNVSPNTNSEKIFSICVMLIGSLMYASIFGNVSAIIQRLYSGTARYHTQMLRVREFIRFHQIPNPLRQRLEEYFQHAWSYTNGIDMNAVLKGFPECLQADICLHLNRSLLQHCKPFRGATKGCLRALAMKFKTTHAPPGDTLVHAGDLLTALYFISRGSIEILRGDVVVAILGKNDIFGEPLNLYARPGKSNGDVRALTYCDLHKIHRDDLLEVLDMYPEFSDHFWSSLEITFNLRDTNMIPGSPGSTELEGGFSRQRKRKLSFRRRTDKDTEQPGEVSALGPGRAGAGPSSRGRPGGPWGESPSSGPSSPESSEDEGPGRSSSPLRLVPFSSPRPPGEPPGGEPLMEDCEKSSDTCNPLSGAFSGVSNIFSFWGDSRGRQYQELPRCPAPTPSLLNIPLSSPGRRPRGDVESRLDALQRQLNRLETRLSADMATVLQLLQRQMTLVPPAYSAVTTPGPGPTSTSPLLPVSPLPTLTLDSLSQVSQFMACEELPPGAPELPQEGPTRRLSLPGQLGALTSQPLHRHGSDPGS

Compound	hERG [1] [%]	IC50 [µM]	other results
COc1ccccc1Nc1nc(C)c(C(=O)NCc2ccccc2SC)s1 [Compound 97]	55	–	–
COc1ccc(CNC(=O)c2sc(Nc3ccc(Br)cc3)nc2C)cc1 [Compound 60, 2-(4-bromo-phenylamino)-4-methyl-thiazole-5-carboxylic acid 4-methoxy-benzylamide]	–	3	–
Cc1nc(NC(=O)c2ccc(C(C)(C)C)cc2)sc1C(=O)N[C@H]1CCC[C@@H]1OCc1ccccc1 [Compound 180, 2-(4-tert-butyl-benzoylamino)-4-methyl-thiazole-5-carboxylic acid ((1S,2S)-2-benzyloxycyclopent-1-yl) amide]	64	–	–
COc1ccccc1Nc1nc(C)c(C(=O)NCc2ccc3c(c2)CCO3)s1 [Compound 104, 2-(2-methoxy-phenylamino)-4-methyl-thiazole-5-carboxylic acid (2,3-dihydro-benzofuran-5-ylmethyl)-amide]	43	–	–
COc1ccccc1Nc1nc(C)c(C(=O)NCc2c(C)cccc2Cl)s1 [Compound 98, 2-(2-methoxy-phenylamino)-4-methyl-thiazole-5-carboxylic acid 2-chloro-6-methyl-benzylamide]	38	–	–
COc1ccccc1Nc1nc(C)c(C(=O)N[C@H]2CCC[C@@H]2OCc2ccccc2)s1 [Compound 68, 2-(2-methoxy-phenylamino)-4-methyl-thiazole-5-carboxylic acid (1S,2S)-2-(benzyloxycyclopent-1-yl) amide]	–	7.95	–
2-(4-bromo-phenylamino)-4-methyl-thiazole-5-carboxylic acid 1,2,3,4-tetrahydroisoquinolinamide [Compound 66]	–	9.88	pIC50: 5.01
Cc1nc(Nc2ccc(Cl)cc2)sc1C(=O)N[C@H](C)c1ccc2ccccc2c1 [Compound 52, 2-(4-chloro-phenylamino)-4-methyl-thiazole-5-carboxylic acid (R)-1-(2-naphtalen-2-yl-ethyl)-amide]	–	24.2	pIC50: 4.62
COc1ccc(OC)c(Nc2nc(C)c(C(=O)N[C@@H]3CCC[C@H]3OCc3ccccc3)s2)c1 [Compound 33, 2-(2,5-dimethoxyphenylamino)-4-methylthiazole-5-carboxylic acid (1R,2R)-2-(benzyloxycyclopent-1-yl) amide]	–	33.5	–
COc1ccccc1Nc1nc(C)c(C(=O)NCc2ccc(C(C)(C)C)cc2)s1 [Compound 106, 2-(2-methoxy-phenylamino)-4-methyl-thiazole-5-carboxylic acid 4-tert-butyl-benzylamide]	31	–	–
COc1ccccc1Nc1nc(C)c(C(=O)NCc2ccc(Br)cc2)s1 [Compound 108, 2-(2-methoxy-phenylamino)-4-methyl-thiazole-5-carboxylic acid 4-bromo-benzylamide]	19	–	–
Cc1nc(Nc2ccc(Br)cc2)sc1C(=O)NCc1cccc2ccccc12 [Compound 56, 2-(4-bromo-phenylamino)-4-methyl-thiazole-5-carboxylic acid (naphtalen-1-yl-methyl)-amide]	–	7.04	pIC50: 5.15
COc1ccccc1Nc1nc(C)c(C(=O)N[C@@H]2CCC[C@H]2OCc2ccccc2)s1 [Compound 31, 2-(2-methoxy-phenylamino)-4-methyl-thiazole-5-carboxylic acid (1R,2R)-2-(benzyloxycyclopent-1-yl) amide]	–	25.3	–
COc1ccccc1Nc1nccc(C(=O)N[C@H]2CCC[C@@H]2OCc2ccccc2)n1 [Compound 76, 2-(2-methoxy-phenylamino)-pyrimidine-4-carboxylic acid ((1S,2S)-2-benzyloxycyclopent-1-yl) amide]	34	–	–
COc1cccc([C@@H](C)NC(=O)c2sc(Nc3cc(Cl)ccc3OC)nc2C)c1 [Compound 34]	–	8.73	–
Cc1nc(Nc2ccc3occc3c2)sc1C(=O)N[C@H]1CCC[C@@H]1OCc1ccccc1 [Compound 126, 2-(benzofuran-5-ylamino)-4-methyl-thiazole-5-carboxylic acid ((1S,2S)-2-benzyloxycyclopent-1-yl) amide]	–	–	hERG (at 1 μM): 74 at1 μM
Cc1nc(Nc2ccc(Br)cc2)sc1C(=O)NCc1ccc(F)c(C(F)(F)F)c1 [Compound 63, 2-(4-bromo-phenylamino)-4-methyl-thiazole-5-carboxylic acid 4-fluoro-3-trifluoromethyl-benzylamide]	–	5.29	–
Cc1nc(Nc2ccc(Br)cc2)sc1C(=O)NCc1ccc(N(C)C)cc1 [Compound 64, 2-(4-bromo-phenylamino)-4-methyl-thiazole-5-carboxylic acid 4-dimethylamino-benzylamide]	–	> 100	pIC50: < 4.00
Cc1nc(Sc2ccccc2)sc1C(=O)N[C@H]1CCC[C@@H]1OCc1ccccc1 [Compound 81, 4-methyl-2-phenylsulfanyl-thiazole-5-carboxylic acid ((1S,2S)-2-benzyloxycyclopent-1-yl) amide]	88	–	–
COc1ccccc1Nc1nc(C)c(C(=O)NCc2ccc(N(C)C)cc2)s1 [Compound 105, 2-(2-methoxy-phenylamino)-4-methyl-thiazole-5-carboxylic acid 4-dimethylamino-benzylamide]	67	–	–
Cc1nc(Nc2cccc3cccnc23)sc1C(=O)N[C@H]1CCC[C@@H]1OCc1ccccc1 [Compound 94, 4-methyl-2-(quinolin-8-ylamino)-thiazole-5-carboxylic acid ((1S,2S)-2-benzyloxycyclopent-1-yl) amide]	69	–	–
COc1cc(CNC(=O)c2sc(Nc3ccc(Br)cc3)nc2C)cc(OC)c1 [Compound 65, 2-(4-bromo-phenylamino)-4-methyl-thiazole-5-carboxylic acid 3,5-dimethoxy-benzylamide]	–	1.63	–
Cc1nc(Nc2ccc(Cl)cc2)sc1C(=O)N[C@@H]1CCC[C@H]1OCc1ccccc1 [Compound 30, 2-(4-chloro-phenylamino)-4-methyl-thiazole-5-carboxylic acid (1R,2R)-2-(benzyloxycyclopent-1-yl) amide]	–	11	pIC50: 4.96
Cc1nc(Nc2ccc3c(c2)OCCO3)sc1C(=O)N[C@H]1CCC[C@@H]1OCc1ccccc1 [Compound 95]	76	–	–
Cc1nc(Nc2ccc(Br)cc2)sc1C(=O)N[C@H](C)c1ccc2ccccc2c1 [Compound 19, 2-(4-bromo-phenylamino)-4-methyl-thiazole-5-carboxylic acid (R)-1-(naphthalen-2-yl)ethyl amide]	–	90	–
Cc1nc(Nc2ccc(Br)cc2)sc1C(=O)N[C@@H](C)c1ccc2ccccc2c1 [Compound 18, 2-(4-bromo-phenylamino)-4-methyl-thiazole-5-carboxylic acid (S)-1-(naphthalen-2-yl)ethyl amide]	–	26.5	–
Cc1nc(Nc2ccc(F)cc2)sc1C(=O)N[C@H](C)c1ccc2ccccc2c1 [Compound 16, 2-(4-fluoro-phenylamino)-4-methyl-thiazole-5-carboxylic acid (R)-1-(naphthalen-2-yl)ethyl amide]	–	28	–
COc1ccccc1Nc1ccc(C(=O)N[C@H]2CCC[C@@H]2OCc2ccccc2)s1 [Compound 75, 2-(2-methoxy-phenylamino)-thiophene-5-carboxylic acid ((1S,2S)-2-benzyloxycyclopent-1-yl) amide]	76	–	–
Cc1nc(Nc2ccc(Cl)cc2)sc1C(=O)N[C@@H](C)c1ccc2ccccc2c1 [Compound 54, 2-(4-chloro-phenylamino)-4-methyl-thiazole-5-carboxylic acid (S)-1-(2-naphtalen-2-yl-ethyl)-amide]	–	15.8	pIC50: 4.80
Cc1nc(Nc2cccc3ccccc23)sc1C(=O)N[C@H]1CCC[C@@H]1OCc1ccccc1 [Compound 93]	59	–	–
